Experimental data: patent US6528272B2 (priority 1997, dated 2003)

Molecular target: SEB (Staphylococcus aureus, UniProt P01552)
Format: binding

SEB, sequence (P01552 28-266 limits assumed): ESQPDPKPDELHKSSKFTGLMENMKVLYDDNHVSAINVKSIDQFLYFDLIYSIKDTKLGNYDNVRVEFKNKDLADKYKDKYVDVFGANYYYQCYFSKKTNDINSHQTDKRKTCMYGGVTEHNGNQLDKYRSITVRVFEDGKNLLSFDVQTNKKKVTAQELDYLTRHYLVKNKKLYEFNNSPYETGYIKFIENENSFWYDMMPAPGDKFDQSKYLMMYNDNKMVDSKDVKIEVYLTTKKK

| Substance | binding of SEB to glycosphingolipid |
| --- | --- |
| digalactosylceramide [diGalCer] | strong binding |
| galactosylceramide [GalCer] | did not significantly bind |
| glucosylceramide [GlcCer] | did not significantly bind |
| lactosylceramide [LacCer] | did not significantly bind |
